According to the NIST ThermoML archive (doi:10.1021/acs.jced.7b01031):
± gives the expanded uncertainty stated by the source.

Details: Pulse-echo method

Cl [hydrogen chloride]
Liquid
Details	speed of sound [m/s]
218.3 K	940 ± 3
224.3 K	910 ± 3
229.2 K	887 ± 3
233.1 K	865 ± 3
243 K	814 ± 3
248 K	790 ± 4
252.9 K	762 ± 4
258 K	734 ± 4
263 K	705 ± 4
268 K	676 ± 5
273 K	646 ± 5

Fluid (supercritical or subcritical phases)
Details	speed of sound [m/s]
267 K, 7500 kPa	735 ± 6
269.9 K, 9700 kPa	740 ± 6
274.8 K, 13900 kPa	751 ± 5
279.8 K, 5500 kPa	634 ± 7
279.8 K, 18000 kPa	761 ± 5
284.8 K, 8500 kPa	640 ± 7
284.8 K, 22200 kPa	773 ± 4
289.7 K, 11800 kPa	652 ± 7
289.8 K, 26500 kPa	783 ± 4
292.9 K, 6900 kPa	564 ± 9
294.8 K, 15600 kPa	666 ± 6
294.8 K, 30800 kPa	794 ± 4
295 K, 8000 kPa	567 ± 9
299.8 K, 19200 kPa	678 ± 6
300 K, 11100 kPa	582 ± 9
300 K, 35100 kPa	805 ± 4
303.1 K, 37700 kPa	810 ± 4
305 K, 14200 kPa	595 ± 8
305 K, 22900 kPa	690 ± 6
305 K, 39300 kPa	814 ± 4
310 K, 17300 kPa	608 ± 7
310 K, 26300 kPa	700 ± 5
315 K, 20400 kPa	621 ± 7
315 K, 30000 kPa	712 ± 5
320 K, 10800 kPa	425 ± 15
320 K, 23500 kPa	632 ± 6
320 K, 33600 kPa	722 ± 4
325 K, 12900 kPa	441 ± 9
325 K, 26600 kPa	643 ± 6
325 K, 37200 kPa	732 ± 4
328 K, 39300 kPa	738 ± 4
330 K, 15100 kPa	456 ± 9
330 K, 29800 kPa	654 ± 5
335 K, 17200 kPa	469 ± 9
335 K, 32900 kPa	665 ± 5
340 K, 19300 kPa	482 ± 10
340 K, 36000 kPa	675 ± 5
345 K, 21500 kPa	494 ± 8
345 K, 39200 kPa	685 ± 5
350 K, 23700 kPa	506 ± 7
355 K, 25900 kPa	517 ± 6
359.9 K, 21500 kPa	433 ± 9
360 K, 28000 kPa	527 ± 8
365 K, 30200 kPa	537 ± 7
369.9 K, 24900 kPa	454 ± 8
370 K, 32400 kPa	547 ± 5
374.9 K, 34600 kPa	556 ± 5
379.9 K, 28400 kPa	473 ± 6
379.9 K, 36800 kPa	565 ± 6
385.9 K, 39400 kPa	575 ± 7
389.9 K, 31800 kPa	491 ± 6
394.9 K, 22700 kPa	371 ± 6
399.9 K, 12100 kPa	324 ± 2
399.9 K, 35300 kPa	508 ± 6
404.9 K, 24800 kPa	386 ± 5
409.9 K, 21600 kPa	356 ± 5
411.9 K, 39500 kPa	526 ± 6
414.9 K, 26900 kPa	400 ± 6
419.9 K, 13200 kPa	339 ± 2
419.9 K, 23100 kPa	368 ± 3
424.9 K, 29000 kPa	414 ± 6
434.9 K, 31000 kPa	426 ± 5
439.9 K, 14300 kPa	355 ± 2
439.9 K, 26100 kPa	390 ± 3
444.9 K, 33100 kPa	438 ± 5
459.9 K, 29100 kPa	411 ± 3
460 K, 15500 kPa	369 ± 2
460 K, 36100 kPa	456 ± 4
474.9 K, 39200 kPa	472 ± 4
479.9 K, 16500 kPa	383 ± 2
479.9 K, 32000 kPa	430 ± 3
